Measured values taken from ChEMBL document CHEMBL5505972, “Design, synthesis and evaluation of C-5 substituted pyrrolopyridine derivatives as potent Janus Kinase 1 inhibitors with excellent selectivity” (Eur J Med Chem, 2024).

molecular target: Non-receptor tyrosine-protein kinase TYK2 (Homo sapiens, UniProt P29597)
Sequence (P29597 whole entry): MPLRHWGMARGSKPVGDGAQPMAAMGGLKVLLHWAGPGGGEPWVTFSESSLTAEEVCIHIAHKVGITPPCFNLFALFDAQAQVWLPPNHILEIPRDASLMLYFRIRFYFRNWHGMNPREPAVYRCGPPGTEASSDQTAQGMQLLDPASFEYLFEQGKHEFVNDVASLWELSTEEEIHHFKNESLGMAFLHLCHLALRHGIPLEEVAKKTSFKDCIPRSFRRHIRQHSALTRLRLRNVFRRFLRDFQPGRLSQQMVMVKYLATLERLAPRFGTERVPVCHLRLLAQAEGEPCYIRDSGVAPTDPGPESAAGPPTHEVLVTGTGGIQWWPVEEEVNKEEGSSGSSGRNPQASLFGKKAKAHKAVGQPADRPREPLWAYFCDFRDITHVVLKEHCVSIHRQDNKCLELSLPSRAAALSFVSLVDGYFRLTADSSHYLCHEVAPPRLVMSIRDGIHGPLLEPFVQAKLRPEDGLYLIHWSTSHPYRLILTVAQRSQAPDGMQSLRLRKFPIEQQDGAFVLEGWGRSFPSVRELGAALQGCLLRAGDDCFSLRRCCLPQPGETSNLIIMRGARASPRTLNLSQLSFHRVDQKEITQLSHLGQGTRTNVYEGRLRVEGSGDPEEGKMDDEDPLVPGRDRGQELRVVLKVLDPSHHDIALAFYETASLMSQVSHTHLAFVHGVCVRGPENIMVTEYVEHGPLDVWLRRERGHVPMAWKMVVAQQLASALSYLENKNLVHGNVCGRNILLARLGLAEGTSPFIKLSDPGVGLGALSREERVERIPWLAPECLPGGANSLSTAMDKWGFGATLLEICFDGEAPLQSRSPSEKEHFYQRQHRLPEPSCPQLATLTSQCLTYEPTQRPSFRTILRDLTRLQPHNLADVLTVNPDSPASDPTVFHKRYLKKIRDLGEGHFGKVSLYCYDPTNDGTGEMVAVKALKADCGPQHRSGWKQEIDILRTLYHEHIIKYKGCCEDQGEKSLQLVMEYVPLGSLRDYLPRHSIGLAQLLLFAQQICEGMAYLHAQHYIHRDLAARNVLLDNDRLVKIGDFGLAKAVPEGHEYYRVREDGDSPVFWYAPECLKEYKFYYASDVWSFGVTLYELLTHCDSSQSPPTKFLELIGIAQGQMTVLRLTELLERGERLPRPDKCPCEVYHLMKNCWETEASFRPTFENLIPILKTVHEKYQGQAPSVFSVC
Description: Inhibition of TYK2 (unknown origin) using GFP-STAT1 as substrate incubated for 1 hrs by TR-FRET assay

IC50	Structure (SMILES)
> 10 µM	Clc1ccccc1CN1CCC(Nc2c(-c3cc[nH]c3)cnc3[nH]ccc23)CC1
> 10 µM	Clc1cccc(CN2CCC(Nc3c(-c4cc[nH]n4)cnc4[nH]ccc34)CC2)c1
> 10 µM	Clc1cccc(CN2CCC(Nc3c(-c4cn[nH]c4)cnc4[nH]ccc34)CC2)c1
> 10 µM	N#Cc1ccc(CN2CCC(Nc3c(-c4cc[nH]c4)cnc4[nH]ccc34)CC2)cc1
> 10 µM	COc1cccc(CN2CCC(Nc3c(-c4cn[nH]c4)cnc4[nH]ccc34)CC2)c1
4.15 µM	N#Cc1ccccc1CN1CCC(Nc2c(-c3cc[nH]c3)cnc3[nH]ccc23)CC1
> 10 µM	N#Cc1cccc(CN2CCC(Nc3c(-c4cc[nH]n4)cnc4[nH]ccc34)CC2)c1
> 10 µM	Clc1ccccc1CN1CCC(Nc2c(-c3cc[nH]n3)cnc3[nH]ccc23)CC1
> 10 µM	Clc1ccccc1CN1CCC(Nc2c(-c3cn[nH]c3)cnc3[nH]ccc23)CC1
0.0041 µM	N#Cc1ccccc1CN1CCC(Nc2c(-c3cn[nH]c3)cnc3[nH]ccc23)CC1
> 10 µM	Clc1ccc(CN2CCC(Nc3c(-c4cc[nH]n4)cnc4[nH]ccc34)CC2)cc1
> 10 µM	Clc1cccc(CN2CCC(Nc3c(-c4cc[nH]c4)cnc4[nH]ccc34)CC2)c1
0.0013 µM	N#Cc1ccccc1CN1CCC(Nc2c(-c3cc[nH]n3)cnc3[nH]ccc23)CC1
> 10 µM	Clc1ccc(CN2CCC(Nc3c(-c4cn[nH]c4)cnc4[nH]ccc34)CC2)cc1
> 10 µM	COc1cccc(CN2CCC(Nc3c(-c4cc[nH]n4)cnc4[nH]ccc34)CC2)c1
> 10 µM	N#Cc1cccc(CN2CCC(Nc3c(-c4cc[nH]c4)cnc4[nH]ccc34)CC2)c1
> 10 µM	N#Cc1cccc(CN2CCC(Nc3c(-c4cn[nH]c4)cnc4[nH]ccc34)CC2)c1
> 10 µM	Clc1ccc(CN2CCC(Nc3c(-c4cc[nH]c4)cnc4[nH]ccc34)CC2)cc1
> 10 µM	N#Cc1ccc(CN2CCC(Nc3c(-c4cc[nH]n4)cnc4[nH]ccc34)CC2)cc1
> 10 µM	N#Cc1ccc(CN2CCC(Nc3c(-c4cn[nH]c4)cnc4[nH]ccc34)CC2)cc1
0.504 µM	COc1cccc(CN2CCC(Nc3c(-c4cc[nH]c4)cnc4[nH]ccc34)CC2)c1
